Source: paper PMC9538944, “In vitro biotransformation assays using fish liver cells: Comparing rainbow trout and carp hepatocytes” (Frontiers in Toxicology, 2022)
“And” between values parts separate entries of the source, which are not always exact repeats. Identical values can stand only once. Like-named read-outs stand apart in the source and are kept apart here.

How the values were obtained:
[1] = In vivo bioconcentration test OECD TG 305, carp; set-up: species or system Cyprinus carpio; details: common carp (Cyprinus carpio); for concentration at 40 d: day 40 (depuration); for concentration at 44 d: day 44 (depuration)
Protocol: (§1) In vivo BCF values for MXC and BaP in carp and trout were determined in bioconcentration tests with both species in accordance to OECD TG 305 ([OECD, 2012]). The studies were approved by the State Agency for Nature, Environment and Consumer Protection (LANUV) North Rhine-Westphalia. The fish were exposed to a single concentration of both test items in a flow-through system for 35 days. No control groups were used. Dosing was performed by a solid-phase desorption system which was integrated in the fresh water supply allowing for a constant delivery of test concentrations to the fish chambers. The procedure of column generated concentrations was described in detail by [Schlechtriem et al. (2017)]. For the present study, two packed columns containing each 500 g Florisil® loaded with 200 mg of either MXC or BaP were used for each fish chamber. The uptake (exposure) phase of the study was followed by a 35 days depuration phase in uncontaminated water. The flow-through rate was maintained at 38.6 L/h for carp and 30.1 L/h for trout throughout the test. […] Additional 2-4 fish were sampled each, at the start and at the end of the exposure period, as well as at the end of the depuration period for lipid analysis. The total lipid content of the fish was measured individually by gravimetric analysis according to [Smedes (1999)].
(§2) Water samples (400 ml) were taken from the test chambers at least three times per week. Preparation for chemical analysis was performed by liquid-liquid extraction using n-hexane (10 ml) containing deuterated MXC (35 ng). The purified organic phase was subdivided into two equal parts and evaporated to dryness under a stream of nitrogen. One part of the residue was dissolved in 200 µL DCM for MXC analysis. The other part was mixed with 1 ml ACN: water (8:2, v/v) and subjected to BaP analysis. Whole fish samples were prepared for chemical analysis individually. After grinding the tissue with the addition of dry ice in a Thermomix™ 31 (Vorwerk), the finely powdered homogenate was lyophilized using an AdVantage freeze dryer (Ismatec). Aliquots of the dry samples (0.5 g) were spiked with deuterated internal standards (5 ng MXC-d6 and 0.2 ng BaP-d12) and extracted three times with acetone: DCM (1:1, v/v) (10 ml). The pooled extracts were then extracted with ultra-pure water (45 ml) and mixed with sodium chloride (5 g) to remove acetone and matrix. The organic phase was concentrated (0.5 ml) and dissolved in cyclohexane: DCM (1:1, v/v) (4.2 ml). This was subjected to gel permeation chromatography (GPC) (GILSON system equipped with pump 307, syringe pump 402, GX-271 liquid handler, 508 interface module, and Trilution® LC software; column i. d. 1.5 cm, material Bio-Beads S-X3, 200–400 mesh, Bio-Rad, flow rate 2 ml/min). Eluates containing MXC (26–31 min retention time) and BaP (32–38 min retention time) were evaporated to dryness and dissolved in hexane (1 ml) and toluol (50 µL), respectively. The collected MXC extracts were further concentrated by solid-phase extraction (SPE, Sep-Pak® Vac 12cc, 2 g, silica cartridges, Waters) using DCM: n-hexane (50:50, v/v) as eluent. Eluent and hexane were used to equilibrate and condition the column before sample loading and subsequent washing with DCM: n-hexane (30:70, v/v). The eluate containing MXC was dried down and reconstituted in toluol (0.5 ml).
(§3) MXC in the organic phase of samples from the in vitro incubations and in DCM extracts of water samples from the in vivo bioconcentration tests were analyzed by gas chromatography-mass spectrometry (GC-MS). The GC-MS system consisted of a HP5890 series II GC coupled to a HP5972 mass sensitive detector (Hewlett-Packard). Separations were performed on 5% phenyl polysilphenylene-siloxane capillary columns (BPX-5, 30 m length x 0.25 mm i. d, 0.25 µm df, SGE). […]

common carp = assay: In vivo bioconcentration test OECD TG 305, carp; set-up: species or system Cyprinus carpio; details: for Cf data, concentration measured in individual fish: BaP background corrected
Protocol: as §1, §2, §3

[2] = in vivo, Cf data, concentration measured in individual fish
[3] = in vivo, common carp, day 7 (uptake), read-out: Mean Cf
[4] = in vivo, common carp, day 14 (uptake), read-out: Mean Cf
[5] = in vivo, common carp, day 21 (uptake), read-out: Mean Cf
[6] = in vivo, common carp, day 28 (uptake), read-out: Mean Cf
[7] = in vivo, common carp, day 35 (end of uptake), read-out: Mean Cf
[8] = in vivo, common carp, read-out: Mean Cf
[9] = common carp (Cyprinus carpio), in vivo
[10] = in vivo, common carp, BaP background corrected, read-out: Cf data, concentration measured in individual fish

## c1ccc2c(c1)cc1ccc3cccc4ccc2c1c34 [BaP, benzo[a]pyrene]
[1]; [2]
  concentration at 7 d: 0.204 ng/g
  concentration at 14 d: 0.168 ng/g
  concentration at 21 d: 0.136 ng/g
  concentration at 28 d: 0.13 ng/g
  concentration at 35 d: 0.149 ng/g
[1]; [3]
  concentration at 7 d: 0.216 ng/g
[1]; [4]
  concentration at 14 d: 0.172 ng/g
[1]; [5]
  concentration at 21 d: 0.154 ng/g
[1]; [6]
  concentration at 28 d: 0.148 ng/g
[1]; [7]
  concentration at 35 d: 0.153 ng/g
[1]; [8]
  concentration at 40 d: 0.013 ng/g
  concentration at 44 d: 0.002 ng/g
[1]; whole fish, other: exposure via water in a flow-through system, common carp, day 14 (uptake), BaP background corrected, read-out: Cf data, concentration measured in individual fish
  concentration at 14 d: 0.141 ng/g
Common carp; [9]
  Cf,SS concentration in fish at steady-state: 0.157 µg/kg
  kB, in vivo estimate Carp: 0.48 day⁻¹
  kB, in vivo estimate, range of 95% probability: 0.16–1.4
  kT depuration rate constant: 0.493 day⁻¹
  kTG growth corrected depuration rate constant: 0.482 day⁻¹
Common carp; common carp (Cyprinus carpio), in vivo, 35 d
  BCFSSL lipid-normalized steady-state bioconcentration factor: 73 L/kg

## COc1ccc(C(c2ccc(OC)cc2)C(Cl)(Cl)Cl)cc1 [MXC, methoxychlor]
[1]; in vivo, common carp, day 7 (uptake), BaP background corrected, read-out: Cf data, concentration measured in individual fish
  concentration at 7 d: 12.8 ng/g
[1]; [3]
  concentration at 7 d: 12.2 ng/g
[1]; in vivo, common carp, day 14 (uptake), BaP background corrected, read-out: Cf data, concentration measured in individual fish
  concentration at 14 d: 11.4 ng/g
[1]; [4]
  concentration at 14 d: 9.88 ng/g
[1]; in vivo, common carp, day 21 (uptake), BaP background corrected, read-out: Cf data, concentration measured in individual fish
  concentration at 21 d: 9.16 ng/g
[1]; [5]
  concentration at 21 d: 8.56 ng/g
[1]; in vivo, common carp, day 28 (uptake), BaP background corrected, read-out: Cf data, concentration measured in individual fish
  concentration at 28 d: 7.02 ng/g
[1]; [6]
  concentration at 28 d: 6.94 ng/g
[1]; in vivo, common carp, day 35 (end of uptake), BaP background corrected, read-out: Cf data, concentration measured in individual fish
  concentration at 35 d: 8.35 ng/g
[1]; [7]
  concentration at 35 d: 7.59 ng/g
[1]; [10]
  concentration at 40 d: 3.02 ng/g
  concentration at 44 d: 0.819 ng/g
[1]; [8]
  concentration at 40 d: 2.4 ng/g
  concentration at 44 d: 0.757 ng/g
Common carp; common carp
  Cf,SS concentration in fish at steady-state: 8.24 µg/kg
  kT depuration rate constant: 0.255 day⁻¹
  kTG growth corrected depuration rate constant: 0.244 day⁻¹
Common carp; common carp, 5% lipid content
  BCFSSL lipid-normalized steady-state bioconcentration factor: 621 L/kg
Common carp; common carp, day 7 (uptake)
  Cf data, concentration measured in individual fish: 11.7 µg/kg and 10.7 µg/kg and 13.8 µg/kg
Common carp; common carp, day 14 (uptake)
  Cf data, concentration measured in individual fish: 9.30 µg/kg and 10.0 µg/kg and 8.83 µg/kg
Common carp; common carp, day 21 (uptake)
  Cf data, concentration measured in individual fish: 9.96 µg/kg and 6.95 µg/kg and 8.16 µg/kg
Common carp; common carp, day 28 (uptake)
  Cf data, concentration measured in individual fish: 5.90 µg/kg and 7.85 µg/kg and 7.00 µg/kg
Common carp; common carp, day 35 (end of uptake)
  Cf data, concentration measured in individual fish: 7.32 µg/kg and 7.30 µg/kg and 7.40 µg/kg
Common carp; common carp, day 40 (depuration)
  Cf data, concentration measured in individual fish: 2.71 µg/kg and 1.73 µg/kg and 2.16 µg/kg
Common carp; common carp, day 44 (depuration)
  Cf data, concentration measured in individual fish: 0.719 µg/kg and 0.956 µg/kg and 0.535 µg/kg
